Our source for the IC50 values is patent US10954232B2, “Pyrazole derivative as ALK5 inhibitor and uses thereof” (HANMI PHARMACEUTICAL CO., LTD., priority 2016, dated 2021).

This test concerns the target T1, ALK5 kinase (Homo sapiens, UniProt P36897).
T1 construct: GST; purchased Thermo Fisher Scientific Solutions
T1 sequence (P36897 34-503): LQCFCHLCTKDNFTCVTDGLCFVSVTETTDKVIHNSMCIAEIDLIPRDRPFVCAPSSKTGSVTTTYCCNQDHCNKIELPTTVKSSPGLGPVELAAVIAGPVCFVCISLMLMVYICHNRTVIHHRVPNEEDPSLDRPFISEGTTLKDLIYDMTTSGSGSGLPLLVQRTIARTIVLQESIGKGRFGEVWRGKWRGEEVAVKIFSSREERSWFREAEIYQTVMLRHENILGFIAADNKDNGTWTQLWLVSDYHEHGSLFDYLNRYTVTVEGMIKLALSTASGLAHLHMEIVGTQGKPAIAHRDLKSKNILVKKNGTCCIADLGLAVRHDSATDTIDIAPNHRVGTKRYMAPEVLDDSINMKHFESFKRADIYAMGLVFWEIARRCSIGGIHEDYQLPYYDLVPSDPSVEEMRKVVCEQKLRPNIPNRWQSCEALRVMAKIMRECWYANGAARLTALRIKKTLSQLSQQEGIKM
Description: Activity inhibition test on ALK5 enzyme (LanthaScreen Eu binding kinase assay). The following applies: kinase tracer 178, 60 minutes at room temperature. The protocol: For each of the compounds obtained in Examples 1 to 227, inhibitory activity against ALK5 kinase was measured.
For this, a LanthaScreen Eu binding kinase assay method was used, and ALK5 kinase, a kinase buffer, a kinase tracer 178, and a LanthaScreen Eu-GST binding antibody were all purchased from Thermo Fisher Scientific Solutions. Each of the compounds was made into a 10 mM DMSO solution, and diluted by 1/10 to a concentration of 1 μM to 0.0001 μM with an aqueous solution containing 4% DMSO. The test was performed in 384 well plates (well polystyrene low volume round-bottomed plates). First, 5 μL of the diluted compound solution was added, then 5 μL of the kinase/antibody mixture solution was introduced thereto, and 5 μL of the tracer was introduced thereto. Herein, these were added to each well so that the final kinase concentration became 5 nM, the final Eu-GST binding antibody concentration 2 nM, and the kinase tracer 178 concentration 10 nM, and the result was reacted in a stirrer for 60 minutes at room temperature. Then a fluorescence value was measured using a fluorescence meter (molecular device) ([…], 665 nm emission filter). Herein, as for the degree of compound activity to inhibit the kinase reaction, a phosphorylate rate was calculated from 0% to 100% with respect to a control group according to the protocol included in the kit, and a 50% inhibitory concentration (IC50) value was calculated by obtaining the x-axis concentration in the region where 50% activity was inhibited.
Background: In TR-FRET formats the signal depends on donor and acceptor labels being close together.
What is called IC50 is the concentration at which inhibition is half-maximal. Higher therefore signals weaker potency in that assay. `Cc1cccc(-n2nc(C(=O)Nc3ccc(Br)cc3)cc2-c2ccc3ncsc3c2)n1` [Example 34, 5-(benzo[d]thiazol-6-yl)-N-(4-bromophenyl)-1-(6-methylpyridin-2-yl)-1H-pyrazole-3-carboxyamide] yielded a half-maximal inhibitory concentration (IC50) of 10 to 100 nM.
On to `Cc1cccc(-n2nc(C(=O)Nc3ccc(Cl)cc3)cc2-c2ccc(F)c(-c3cnn(CCO)c3)c2)n1` [Example 225, N-(4-chlorophenyl)-5-(4-fluoro-3-(1-(2-hydroxyethyl)-1H-pyrazol-4-yl)phenyl)-1-(6-methylpyridin-2-yl)-1H-pyrazole-3-carboxyamide], for which the IC50 was 33 nM.
With `Cc1cccc(-n2nc(C(=O)Nc3cccc(CO)c3)cc2-c2ccc3ncsc3c2)n1` [Example 84, 5-(benzo[d]thiazol-6-yl)-N-(3-(hydroxymethyl)phenyl)-1-(6-methylpyridin-2-yl)-1H-pyrazole-3-carboxyamide], the IC50 came to 3.9 nM.
For `Cc1cccc(-n2nc(C(=O)Nc3ccc(N)cc3)cc2-c2ccc3ncsc3c2)n1` [Example 86, N-(4-aminophenyl)-5-(benzo[d]thiazol-6-yl)-1-(6-methylpyridin-2-yl)-1H-pyrazole-3-carboxyamide], the IC50 was 1.1 nM.
Compound `Cc1cccc(-n2nc(C(=O)Nc3ccc(S(=O)(=O)NC4CC4)cc3)cc2-c2ccc3ncsc3c2)n1` [Example 50, 5-(benzo[d]thiazol-6-yl)-N-(4-(N-cyclopropylsulfamoyl)phenyl)-1-(6-methylpyridin-2-yl)-1H-pyrazole-3-carboxyamide] returned an IC50 of 6.6 nM. This IC50 is about 6-fold higher than that of the compound before.
`Cc1cccc(-n2nc(C(=O)Nc3ccccc3F)cc2-c2ccc3ncoc3c2)n1` [Example 219, 5-(benzo[d]oxazol-6-yl)-N-(2-fluorophenyl)-1-(6-methylpyridin-2-yl)-1H-pyrazole-3-carboxyamide] came in with an IC50 of 27 nM.
`Cc1cccc(-n2nc(C(=O)Nc3ccc4c(c3)OCO4)cc2-c2ccc3ncsc3c2)n1` [Example 7, N-(benzo[d][1,3]dioxol-5-yl)-5-(benzo[d]thiazol-6-yl)-1-(6-methylpyridin-2-yl)-1-H-pyrazole-3-carboxyamide] gave an IC50 of under 10 nM.
Regarding `COc1ccc(NC(=O)c2cc(-c3ccnc4ccccc34)n(-c3cccc(C)n3)n2)cn1` [Example 212, N-(6-methoxypyridin-3-yl)-1-(6-methylpyridin-2-yl)-5-(quinolin-4-yl)-1H-pyrazole-3-carboxyamide], the IC50 was 36 nM.
`COCCOc1ccc(NC(=O)c2cc(-c3ccc4ncnn4c3)n(-c3cccc(C)n3)n2)cc1` [Example 95, 5-([1,2,4]triazolo[1,5-α]pyridin-6-yl)-N-(4-(2-methoxyethoxy)phenyl)-1-(6-methylpyridin-2-yl)-1H-pyrazole-3-carboxyamide] yielded an IC50 of 25 nM. This IC50 and that of the compound before are within 1.5-fold of each other.
As to `Cc1cccc(-n2nc(C(=O)Nc3ccc(S(=O)(=O)N(C)C)cc3)cc2-c2ccc3ncsc3c2)n1` [Example 52, 5-(benzo[d]thiazol-6-yl)-N-(4-(N,N-dimethylsulfamoyl)phenyl)-1-(6-methylpyridin-2-yl)-1H-pyrazole-3-carboxyamide], the IC50 is 2.5 nM.
As for `CC(=O)c1cccc(NC(=O)c2cc(-c3ccc4ncsc4c3)n(-c3cccc(C)n3)n2)c1` [Example 23, 5-(benzo[d]thiazol-6-yl)-N-(3-acetylphenyl)-1-(6-methylpyridin-2-yl)-1H-pyrazole-3-carboxyamide], the figure is about 10 nM; as for `Cc1cccc(-n2nc(C(=O)Nc3ccc(F)c(F)c3)cc2-c2ccc3nccnc3c2)n1` [Example 186, N-(3,4-difluorophenyl)-1-(6-methylpyridin-2-yl)-5-(quinoxalin-6-yl)-1H-pyrazole-3-carboxyamide], 10 to 100 nM.
Compound `Cc1cccc(-n2nc(C(=O)Nc3ccc(Cl)c(Cl)c3)cc2-c2ccc3ncnn3c2)n1` [Example 141, 5-([1,2,4]triazolo[1,5-α]pyridin-6-yl)-N-(3,4-dichlorophenyl)-1-(6-methylpyridin-2-yl)-1H-pyrazole-3-carboxyamide] showed an IC50 of 10 to 100 nM.
As for `Cc1cccc(-n2nc(C(=O)Nc3ccccc3Cl)cc2-c2ccc3ncsc3c2)n1` [Example 31, 5-(benzo[d]thiazol-6-yl)-N-(2-chlorophenyl)-1-(6-methylpyridin-2-yl)-1H-pyrazole-3-carboxyamide], the figure is over 100 nM; as for `Cc1cccc(-n2nc(C(=O)Nc3cnn(S(C)(=O)=O)c3)cc2-c2ccc(F)c(-c3cnn(CCO)c3)c2)n1` [Example 224, N-(1-(methylsulfonyl)-1H-pyrazol-4-yl)-5-(4-fluoro-3-(1-(2-hydroxyethyl)-1H-pyrazol-4-yl)phenyl)-1-(6-methylpyridin-2-yl)-1H-pyrazole-3-carboxyamide], 3.1 nM; as for `Cc1cccc(-n2nc(C(=O)Nc3ccc(OCC4CC4)cc3)cc2-c2ccc3ncsc3c2)n1` [Example 3, 5-(benzo[d]thiazol-6-yl)-N-(4-(cyclopropylmethoxy)phenyl)-1-(6-methylpyridin-2-yl)-1H-pyrazole-3-carboxyamide], 12 nM.
In turn, `Cc1cccc(-n2nc(C(=O)Nc3ccc(C(F)(F)F)cc3)cc2-c2ccc3nccnc3c2)n1` [Example 180, 1-(6-methylpyridin-2-yl)-5-(quinoxalin-6-yl)-N-(4-(trifluoromethyl)phenyl)-1H-pyrazole-3-carboxyamide] displayed a half-inhibitory concentration (IC50) of 100 to 1000 nM.
As for `Cc1cccc(-n2nc(C(=O)Nc3ccc4c(c3)OCCO4)cc2-c2ccc3nccnc3c2)n1` [Example 169, N-(2,3-dihydrobenzo[b][1,4]dioxin-6-yl)-1-(6-methylpyridin-2-yl)-5-(quinoxalin-6-yl)-1H-pyrazole-3-carboxyamide], the figure is 10 to 100 nM; as for `Cc1cccc(-n2nc(C(=O)Nc3ccc(S(N)(=O)=O)cc3)cc2-c2ccc3ncsc3c2)n1` [Example 46], 1.3 nM.
`Cc1cccc(-n2nc(C(=O)NCc3ccccc3F)cc2-c2ccc3ncnn3c2)n1` [Example 155, 5-([1,2,4]triazolo[1,5-α]pyridin-6-yl)-N-(2-fluorobenzyl)-1-(6-methylpyridin-2-yl)-1H-pyrazole-3-carboxyamide] displayed an IC50 of 13 nM.
For `CN(C)c1ccc(NC(=O)c2cc(-c3ccc4nccnc4c3)n(-c3cccc(Br)n3)n2)cc1` [Example 208, 1-(6-bromopyridin-2-yl)-N-(4-(dimethylamino)phenyl)-5-(quinoxalin-6-yl)-1H-pyrazole-3-carboxyamide] the value was 10 to 100 nM.
Consider `Cc1cccc(-n2nc(C(=O)NCc3ccccc3)cc2-c2ccc3ncsc3c2)n1` [Example 76, 5-(benzo[d]thiazol-6-yl)-N-benzyl-1-(6-methylpyridin-2-yl)-1H-pyrazole-3-carboxyamide], for which the IC50 was about 10 nM.
As to `Cc1cccc(-n2nc(C(=O)NCc3cccc(F)c3)cc2-c2ccc3ncnn3c2)n1` [Example 156, 5-([1,2,4]triazolo[1,5-α]pyridin-6-yl)-N-(3-fluorobenzyl)-1-(6-methylpyridin-2-yl)-1H-pyrazole-3-carboxyamide], the IC50 turned out to be 22 nM.
For the compound `Cc1cccc(-n2nc(C(=O)Nc3ccnc(Cl)c3)cc2-c2ccc3ncsc3c2)n1` [Example 74, 5-(benzo[d]thiazol-6-yl)-N-(2-chloropyridin-4-yl)-1-(6-methylpyridin-2-yl)-1H-pyrazole-3-carboxyamide], the IC50 was found to be 2.3 nM.
For `CNC(=O)c1ccccc1NC(=O)c1cc(-c2ccc3ncnn3c2)n(-c2cccc(C)n2)n1` [Example 112, 5-([1,2,4]triazolo[1,5-α]pyridin-6-yl)-N-(2-(methylcarbamoyl)phenyl)-1-(6-methylpyridin-2-yl)-1H-pyrazole-3-carboxyamide] the value was 10 to 100 nM; for `COc1ccc(NC(=O)c2cc(-c3ccc4nccnc4c3)n(-c3cccc(C)n3)n2)cn1` [Example 192, N-(6-methoxypyridin-3-yl)-1-(6-methylpyridin-2-yl)-5-(quinoxalin-6-yl)-1H-pyrazole-3-carboxyamide], 10 to 100 nM; for `Cc1cccc(-n2nc(C(=O)Nc3ccc(SC4CC4)cc3)cc2-c2ccc3ncsc3c2)n1` [Example 37, 5-(benzo[d]thiazol-6-yl)-N-(4-(cyclopropylthio)phenyl)-1-(6-methylpyridin-2-yl)-1H-pyrazole-3-carboxyamide], 40 nM.
For `Cc1cccc(-n2nc(C(=O)NCc3ccc(N(C)C)cc3)cc2-c2ccc3ncnn3c2)n1` [Example 160, 5-([1,2,4]triazolo[1,5-α]pyridin-6-yl)-N-(4-(dimethylamino)benzyl)-1-(6-methylpyridin-2-yl)-1H-pyrazole-3-carboxyamide] the value was 10 to 100 nM.
